What is called EC50 is the concentration that produces a half-maximal response. Read a low EC50 as a more potent agent.

In one data set the target is T1, PPARδ receptor (Homo sapiens, UniProt Q03181).
T1 sequence (Q03181 1-441): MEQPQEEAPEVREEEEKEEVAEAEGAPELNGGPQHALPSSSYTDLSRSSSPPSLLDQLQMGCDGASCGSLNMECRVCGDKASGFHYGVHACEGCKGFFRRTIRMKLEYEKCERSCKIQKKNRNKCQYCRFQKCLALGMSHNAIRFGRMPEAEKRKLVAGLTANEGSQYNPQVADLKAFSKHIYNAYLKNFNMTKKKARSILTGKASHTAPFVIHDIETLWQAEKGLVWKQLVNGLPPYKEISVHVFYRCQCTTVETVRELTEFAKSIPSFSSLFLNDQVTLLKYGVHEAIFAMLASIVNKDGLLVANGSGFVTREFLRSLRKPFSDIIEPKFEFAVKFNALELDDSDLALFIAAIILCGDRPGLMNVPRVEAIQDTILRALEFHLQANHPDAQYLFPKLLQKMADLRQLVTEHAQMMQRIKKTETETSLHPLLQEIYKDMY
Briefly: Binding and cotransfection studies, PPARδ ("binding assay"). How it is done: (§1) DNA-dependent binding (ABCD binding) is carried out using SPA technology with PPAR receptors. Tritium-labeled PPARCX agonists are used as radioligands for generating displacement curves and IC50 values with compounds of the invention. Cotransfection assays are carried out in CV-1 cells. The reporter plasmid contains an acylCoA oxidase (AOX) PPRE and TK promoter upstream of the luciferase reporter cDNA. Appropriate PPARs are constitutively expressed using plasmids containing the CMV promoter. For PPARα, interference by endogenous PPARγ in CV-1 cells is an issue. In order to eliminate such interference, a GAL4 chimeric system is used in which the DNA binding domain of the transfected PPAR is replaced by that of GAL4, and the GAL4 response element is utilized in place of the AOX PPRE. Cotransfection efficacy is determined relative to PPARα agonist reference molecules. Efficacies are determined by computer fit to a concentration-response curve, or in some cases at a single high concentration of agonist (10 μM).
(§2) These studies are carried out to evaluate the ability of compounds of the invention to bind to and/or activate various nuclear transcription factors, particularly huPPARα (“hu” indicates “human”). These studies provide in vitro data concerning efficacy and selectivity of compounds of the invention. Furthermore, binding and cotransfection data for compounds of the invention are compared with corresponding data for marketed compounds that act on huPPARα.

Another data set concerns the target T2, PPARα receptor (Homo sapiens, UniProt Q07869).
T2 sequence (Q07869 174-468 limits assumed): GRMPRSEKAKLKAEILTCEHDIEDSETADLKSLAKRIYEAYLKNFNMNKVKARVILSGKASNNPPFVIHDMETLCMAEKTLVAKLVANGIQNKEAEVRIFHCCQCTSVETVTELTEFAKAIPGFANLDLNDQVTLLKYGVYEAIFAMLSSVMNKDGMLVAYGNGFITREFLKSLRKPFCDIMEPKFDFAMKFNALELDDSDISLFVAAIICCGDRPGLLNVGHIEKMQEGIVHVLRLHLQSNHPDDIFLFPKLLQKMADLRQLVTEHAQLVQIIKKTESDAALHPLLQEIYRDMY
Briefly: Binding and cotransfection studies, PPARα ("binding assay"). The procedure: as §1, §2

The target of data set [1] is T3, PXR (human SXR ligand binding domain) (Homo sapiens, UniProt O75469).
T3 construct: expressed in transfected cells; host or cells: HuH7 (human liver) cells
T3 sequence (O75469 146-433 limits assumed): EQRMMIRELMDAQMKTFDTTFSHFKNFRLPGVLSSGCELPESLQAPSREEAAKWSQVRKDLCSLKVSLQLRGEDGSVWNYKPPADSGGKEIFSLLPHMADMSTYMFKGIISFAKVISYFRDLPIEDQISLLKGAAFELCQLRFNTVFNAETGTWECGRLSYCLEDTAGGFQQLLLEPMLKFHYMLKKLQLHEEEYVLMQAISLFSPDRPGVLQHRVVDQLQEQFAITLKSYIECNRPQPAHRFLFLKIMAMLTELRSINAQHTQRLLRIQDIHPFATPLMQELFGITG
Briefly: PXR Assay: GAL4PXR/GAL4 response element reporter assay in HuH7 cells. In kind it is cell-based. Particulars: 24 h, versus maximum stimulation with rifampicin. How it is done: PXR Assay: GAL4PXR/GAL4 Response Element Reporter Assays in HuH7 Cells:
Human liver HuH7 cells are co-transfected using Fugene. The reporter plasmid, containing five Gal4 binding site and major late promoter of adenovirus upstream of the luciferase reporter cDNA, is transfected with a plasmid constitutively expressing a hybrid receptor consistent of GAL4 DNA binding domain and human SXR ligand binding domain using viral SV40 early promoter. Cells are transfected with 10 μg of total DNA/10^6 cells in T225 cm^2 flasks in DMEM:F12 (3:1) media with 10% charcoal-stripped Fetal Bovine Serum (FBS). After an overnight incubation, transfected cells are trypsinized, plated in 96 well dishes in DMEM:F12 (3:1) media with 10% charcoal-stripped FBS, incubated for 4 h and then exposed to 0.8 nM to 50 μM of test compounds in half log dilutions. After 24 h of incubations with compounds, cells are lysed and luciferase activity is determined Data is fit to a 4 parameter-fit logistics to determine EC50 values. The % efficacy is determined versus maximum stimulation obtained with rifampicin.
In general terms: Reporter assays use an easily measured gene product as a stand-in for the process of interest.

Data set [2] addresses T4, Pregnane X Receptor (PXR) (Homo sapiens, UniProt O75469).
T4 sequence (O75469 1-434): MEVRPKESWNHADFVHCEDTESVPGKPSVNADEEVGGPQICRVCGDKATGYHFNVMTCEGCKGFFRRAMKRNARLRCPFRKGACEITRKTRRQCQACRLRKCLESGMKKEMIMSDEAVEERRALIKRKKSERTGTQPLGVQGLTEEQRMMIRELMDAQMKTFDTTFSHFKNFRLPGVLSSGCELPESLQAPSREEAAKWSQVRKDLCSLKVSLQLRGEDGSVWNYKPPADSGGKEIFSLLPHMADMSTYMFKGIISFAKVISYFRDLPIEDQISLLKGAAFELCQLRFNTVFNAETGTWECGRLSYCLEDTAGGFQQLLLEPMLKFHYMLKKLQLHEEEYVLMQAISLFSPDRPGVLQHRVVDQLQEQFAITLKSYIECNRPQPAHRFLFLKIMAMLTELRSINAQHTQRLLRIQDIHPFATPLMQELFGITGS
Particulars: reported in background section; cited from earlier work.

Turning to `CC(C)(Oc1ccc(OC(CCCC(F)(F)F)c2nn(-c3ccc(C(F)(F)F)cc3)c(=O)n2-c2c(F)cccc2F)cc1)C(=O)O` (racemic) [Example 57, 2-(4-{1-[4-(2,6-Difluoro-phenyl)-5-oxo-1-(4-trifluoromethyl-phenyl)-4,5-dihydro-1H-[1,2,4]triazol-3-yl]-5,5,5-trifluoro-pentyloxy}-phenoxy)-2-methyl-propionic acid], the values for the EC50 on PPARδ receptor and on PPARα receptor were 46.4 nM and 872 nM, respectively. Besides, the “PXR (% efficacy versus max stimulation with Rifampicin)” value in data set [1] was determined as 13.5%.
With `Cc1cc(OCc2nn(-c3ccc(C(F)(F)F)cc3)c(=O)n2C(C)C)ccc1OC(C)(C)C(=O)O` [Example 1, 2-{4-[4-Isopropyl-5-oxo-1-(4-trifluoromethyl-phenyl)-4,5-dihydro-1H-[1,2,4]triazol-3-ylmethoxy]-2-methyl-phenoxy}-2-methyl-propionic acid], the EC50 is 63.4 nM at PPARδ receptor and 309 nM at PPARα receptor. Besides, the “PXR (% efficacy versus max stimulation with Rifampicin)” value in data set [1] was 32.4%.
As to `COCCn1c(COc2ccc(OC(C)(C)C(=O)O)c(C)c2)nn(-c2ccc(C(F)(F)F)cc2)c1=O` [Example 2, 2-{4-[4-(2-Methoxy-ethyl)-5-oxo-1-(4-trifluoromethyl-phenyl)-4,5-dihydro-1H-[1,2,4]triazol-3-ylmethoxy]-2-methyl-phenoxy}-2-methyl-propionic acid], the EC50 at PPARδ receptor worked out at 297 nM; at PPARα receptor it was 256 nM. Also, the “PXR (% efficacy versus max stimulation with Rifampicin)” value in data set [1] is reported as 52.8%.
As to `Cc1cc(OCc2nn(-c3ccc(C(F)(F)F)cc3)c(=O)n2-c2ccccc2F)ccc1OC(C)(C)C(=O)O` [Example 13], the concentration for a half-maximal effect (EC50) was 14 nM at PPARδ receptor and 19.5 nM at PPARα receptor. Moreover, the “PXR (% efficacy versus max stimulation with Rifampicin)” value in data set [1] came to 57.8%.
As for `Cc1c(C)c2c(c(C)c1O)CCC(C)(COc1ccc(CC3SC(=O)NC3=O)cc1)O2` (stereo not shown) [troglitazone], in data set [2], the PXR activation result is “activated the Pregnane X Receptor (PXR)”.

Source of the values: patent US20100099725A1, “PEROXISOME PROLIFERATOR ACTIVATED RECEPTOR MODULATORS” (priority 2007, published 2010).
